# Calls of active or inactive are those of the source. The calls are words filed in the database; no cut-off is given here.
# Columns and labels:
# [1] = Antifibrotic activity against mouse Mlg2908 cells assessed as reduction in cell viability measured after 72 hrs by MTT assay; format: functional, cell-based
# [2] = Apparent permeability across apical to basolateral side in human Caco2 cells measured after 90 mins by LC-MS/MS analysis; conditions: Caco-2
# [3] = target: PI3-kinase p110-alpha/p85-alpha (Homo sapiens, UniProt P42336); experiment: Inhibition of recombinant human N-terminal FLAG-tagged full-length p110alpha/human p85alpha expressed in Sf9 insect cells using PIP2 as substrate by kinase-glo assay
# [4] = Apparent permeability across basolateral to apical side in human Caco2 cells measured after 90 mins by LC-MS/MS analysis; conditions: Caco-2
# Mus musculus [5] = experiment: (§1) Antifibrotic activity in bleomycin-induced C57BL/6 mouse model of pulmonary fibrosis assessed as reduction in lung alpha-SMA level at 30 mg/kg, po administered thrice daily for 18 days starting from 10 days post-bleomycin challenge and measured post last dose by immunostaining-based histopathological analysis; format: functional, organism-based
# Mus musculus [6] = experiment: Antifibrotic activity in bleomycin-induced C57BL/6 mouse model of pulmonary fibrosis assessed as reduction in respiratory system compliance at 30 mg/kg, po administered thrice daily for 18 days starting from 10 days post-bleomycin challenge and measured post last dose; format: functional, organism-based
# Mus musculus [7] = experiment: as §1, with “collagen fiber deposition” for “lung alpha-SMA level”, “Masson staining-based” for “immunostaining-based”; format: functional, organism-based
# Mus musculus [8] = experiment: Antifibrotic activity in bleomycin-induced C57BL/6 mouse model of pulmonary fibrosis assessed as reduction in respiratory system resistance at 30 mg/kg, po administered thrice daily for 18 days starting from 10 days post-bleomycin challenge and measured post last dose; format: functional, organism-based
# Mus musculus [9] = experiment: Antifibrotic activity in bleomycin-induced C57BL/6 mouse model of pulmonary fibrosis assessed as reduction in lung fibronectin level at 30 mg/kg, po administered thrice daily for 18 days starting from 10 days post-bleomycin challenge and measured post last dose by Western blot analysis; format: functional, organism-based
# Mus musculus [10] = experiment: Antifibrotic activity in bleomycin-induced C57BL/6 mouse model of pulmonary fibrosis assessed as reduction in respiratory system elastance at 30 mg/kg, po administered thrice daily for 18 days starting from 10 days post-bleomycin challenge and measured post last dose; format: functional, organism-based
# Mus musculus [11] = experiment: Antifibrotic activity in bleomycin-induced C57BL/6 mouse model of pulmonary fibrosis assessed as reduction in lung hydroxyproline level at 30 mg/kg, po administered thrice daily for 18 days starting from 10 days post-bleomycin challenge and measured post last dose; format: functional, organism-based
# Mus musculus [12] = experiment: Antifibrotic activity in bleomycin-induced C57BL/6 mouse model of pulmonary fibrosis assessed as reduction in lung index at 30 mg/kg, po administered thrice daily for 18 days starting from 10 days post-bleomycin challenge and measured post last dose; format: functional, organism-based
# Mus musculus [13] = experiment: Antifibrotic activity in bleomycin-induced C57BL/6 mouse model of pulmonary fibrosis assessed as reduction in inspiratory capacity at 30 mg/kg, po administered thrice daily for 18 days starting from 10 days post-bleomycin challenge and measured post last dose; format: functional, organism-based
# Mus musculus [14] = experiment: as §1, with “damage” for “alpha-SMA level”, “H and E staining-based” for “immunostaining-based”; format: functional, organism-based
# [15] = simulated gi fluid, pH 6.5, 1 h
# Description: Thermodynamic solubility of the compound in pH 6.5 FaSSIF incubated for 1 hr by LC-MS/MS analysis
# [16] = AUC (0 to infinity) in ICR mouse at 0.5 mg/kg, iv by LC-MS/SM analysis; format: ADME, organism-based; parameters: dose 0.5 mg/kg, time infinity, route intravenous; conditions: in vivo
# Mus musculus [17] = species: Mus musculus; experiment: Inhibition of class 1 PI3K in mouse Mlg2908 cells assessed as reduction in AKT phosphorylation at S473 residue measured after 3 hrs by Western blot analysis; format: cell-based
# Mus musculus [18] = species: Mus musculus; experiment: Inhibition of class 1 PI3K in mouse Mlg2908 cells assessed as reduction in S6RP phosphorylation measured after 3 hrs by Western blot analysis; format: cell-based
# [19] = Half life in ICR mouse at 5 mg/kg, po by LC-MS/SM analysis; format: ADME, organism-based; conditions: in vivo
# [20] = Clearance in ICR mouse at 0.5 mg/kg, iv by LC-MS/SM analysis; format: ADME, organism-based; conditions: in vivo
# [21] = Volume of distribution at steady state in ICR mouse at 0.5 mg/kg, iv by LC-MS/SM analysis; format: ADME, organism-based; conditions: in vivo, read-out: Vdss
# PI3K p110 beta/p85 alpha = PI3K p110 beta/p85 alpha (Homo sapiens, UniProt P42338); experiment: Inhibition of recombinant human N-terminal FLAG-tagged full-length p110beta/human p85alpha expressed in Sf9 insect cells using PIP2 as substrate by ADP-glo assay
# [22] = Oral bioavailability in ICR mouse at 5 mg/kg by LC-MS/SM analysis; format: ADME, organism-based; conditions: in vivo
# [23] = target: Phosphatidylinositol 4,5-bisphosphate 3-kinase catalytic subunit gamma isoform (Homo sapiens, UniProt P48736); experiment: Inhibition of recombinant human N-terminal His-tagged full-length p120gamma expressed in Sf9 insect cells using PIP2 as substrate by ADP-glo assay
# [24] = Half life in ICR mouse at 0.5 mg/kg, iv by LC-MS/SM analysis; format: ADME, organism-based; conditions: in vivo
# [25] = buffer, pH 7.4, 1 h
# Description: Thermodynamic solubility of the compound in pH 7.4 PBS incubated for 1 hr by LC-MS/MS analysis
# [26] = AUC (0 to infinity) in ICR mouse at 5 mg/kg, po by LC-MS/SM analysis; format: ADME, organism-based; parameters: dose 5 mg/kg, route oral, time infinity; conditions: in vivo
# [27] = target: PI3-kinase p110-delta/p85-alpha (Homo sapiens, UniProt O00329); experiment: Inhibition of recombinant human N-terminal GST-tagged full-length p110delta/human p85alpha expressed in Sf9 insect cells using PIP2 as substrate by ADP-glo assay
# Mus musculus [28] = species: Mus musculus; experiment: Inhibition of class 1 PI3K in mouse Mlg2908 cells assessed as reduction in AKT phosphorylation at T308 residue measured after 3 hrs by Western blot analysis; format: cell-based
# [29] = Kinetic solubility of the compound in pH 7.4 incubated for 120 mins by HPLC-MS/MS analysis; conditions: buffer, pH 7.4, 2 h
# Mus musculus [30] = species: Mus musculus; experiment: Inhibition of class 1 PI3K in mouse Mlg2908 cells assessed as reduction in p70S6K phosphorylation measured after 3 hrs by Western blot analysis; format: cell-based
# [31] = Cmax in ICR mouse at 5 mg/kg, po by LC-MS/SM analysis; format: ADME, organism-based; parameters: dose 5 mg/kg, route oral; conditions: in vivo
# Chain of PI3-kinase p110-alpha/p85-alpha (P27986 whole entry): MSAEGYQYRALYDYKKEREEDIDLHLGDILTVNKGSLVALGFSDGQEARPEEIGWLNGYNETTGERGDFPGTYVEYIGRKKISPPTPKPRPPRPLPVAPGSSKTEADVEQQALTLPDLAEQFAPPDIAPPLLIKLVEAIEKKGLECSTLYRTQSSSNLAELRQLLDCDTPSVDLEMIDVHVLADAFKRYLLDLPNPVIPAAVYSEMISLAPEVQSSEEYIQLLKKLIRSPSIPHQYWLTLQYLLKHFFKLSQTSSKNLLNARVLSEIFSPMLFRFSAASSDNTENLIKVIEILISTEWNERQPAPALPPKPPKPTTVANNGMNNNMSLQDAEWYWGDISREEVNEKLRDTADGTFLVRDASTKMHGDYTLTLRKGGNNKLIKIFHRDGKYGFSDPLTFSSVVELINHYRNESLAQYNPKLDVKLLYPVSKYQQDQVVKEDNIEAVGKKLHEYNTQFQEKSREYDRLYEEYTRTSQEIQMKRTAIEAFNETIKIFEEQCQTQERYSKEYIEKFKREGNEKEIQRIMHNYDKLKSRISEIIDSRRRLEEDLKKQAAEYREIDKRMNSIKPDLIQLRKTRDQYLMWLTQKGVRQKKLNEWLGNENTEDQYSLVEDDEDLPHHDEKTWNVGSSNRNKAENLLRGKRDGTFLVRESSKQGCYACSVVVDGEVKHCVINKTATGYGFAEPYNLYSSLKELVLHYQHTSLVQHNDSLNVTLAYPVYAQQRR
# Chain of PI3-kinase p110-alpha/p85-alpha (P42336 whole entry): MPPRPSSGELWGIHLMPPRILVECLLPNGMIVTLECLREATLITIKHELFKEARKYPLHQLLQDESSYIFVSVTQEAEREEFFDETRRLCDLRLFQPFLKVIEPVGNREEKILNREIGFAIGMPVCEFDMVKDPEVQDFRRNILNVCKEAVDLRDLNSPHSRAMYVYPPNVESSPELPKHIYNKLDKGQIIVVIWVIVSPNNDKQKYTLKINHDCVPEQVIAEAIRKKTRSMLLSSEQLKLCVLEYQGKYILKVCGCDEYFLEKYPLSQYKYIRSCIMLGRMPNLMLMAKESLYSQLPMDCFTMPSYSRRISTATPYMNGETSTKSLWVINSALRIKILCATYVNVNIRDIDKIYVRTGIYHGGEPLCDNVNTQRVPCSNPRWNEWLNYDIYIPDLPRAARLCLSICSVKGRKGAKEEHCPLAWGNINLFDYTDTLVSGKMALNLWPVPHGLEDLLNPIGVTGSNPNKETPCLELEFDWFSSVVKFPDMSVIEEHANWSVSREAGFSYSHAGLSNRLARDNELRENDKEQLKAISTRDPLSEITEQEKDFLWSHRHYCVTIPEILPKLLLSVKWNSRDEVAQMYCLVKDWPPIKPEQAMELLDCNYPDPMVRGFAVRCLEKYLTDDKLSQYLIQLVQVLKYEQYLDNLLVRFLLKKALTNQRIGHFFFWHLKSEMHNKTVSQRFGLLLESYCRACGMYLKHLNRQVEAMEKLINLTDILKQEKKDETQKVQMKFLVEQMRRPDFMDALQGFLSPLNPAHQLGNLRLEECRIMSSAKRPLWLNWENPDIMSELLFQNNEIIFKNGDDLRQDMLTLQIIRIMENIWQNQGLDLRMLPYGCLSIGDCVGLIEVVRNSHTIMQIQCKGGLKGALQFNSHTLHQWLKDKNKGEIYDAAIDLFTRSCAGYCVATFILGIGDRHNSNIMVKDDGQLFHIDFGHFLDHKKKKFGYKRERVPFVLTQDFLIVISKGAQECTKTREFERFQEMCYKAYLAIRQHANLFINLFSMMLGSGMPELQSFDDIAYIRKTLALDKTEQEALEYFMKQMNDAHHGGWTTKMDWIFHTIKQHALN
# Chain of PI3-kinase p110-delta/p85-alpha (P27986 whole entry): as the sequence (P27986 whole entry) above
# Chain of PI3-kinase p110-delta/p85-alpha (O00329 whole entry): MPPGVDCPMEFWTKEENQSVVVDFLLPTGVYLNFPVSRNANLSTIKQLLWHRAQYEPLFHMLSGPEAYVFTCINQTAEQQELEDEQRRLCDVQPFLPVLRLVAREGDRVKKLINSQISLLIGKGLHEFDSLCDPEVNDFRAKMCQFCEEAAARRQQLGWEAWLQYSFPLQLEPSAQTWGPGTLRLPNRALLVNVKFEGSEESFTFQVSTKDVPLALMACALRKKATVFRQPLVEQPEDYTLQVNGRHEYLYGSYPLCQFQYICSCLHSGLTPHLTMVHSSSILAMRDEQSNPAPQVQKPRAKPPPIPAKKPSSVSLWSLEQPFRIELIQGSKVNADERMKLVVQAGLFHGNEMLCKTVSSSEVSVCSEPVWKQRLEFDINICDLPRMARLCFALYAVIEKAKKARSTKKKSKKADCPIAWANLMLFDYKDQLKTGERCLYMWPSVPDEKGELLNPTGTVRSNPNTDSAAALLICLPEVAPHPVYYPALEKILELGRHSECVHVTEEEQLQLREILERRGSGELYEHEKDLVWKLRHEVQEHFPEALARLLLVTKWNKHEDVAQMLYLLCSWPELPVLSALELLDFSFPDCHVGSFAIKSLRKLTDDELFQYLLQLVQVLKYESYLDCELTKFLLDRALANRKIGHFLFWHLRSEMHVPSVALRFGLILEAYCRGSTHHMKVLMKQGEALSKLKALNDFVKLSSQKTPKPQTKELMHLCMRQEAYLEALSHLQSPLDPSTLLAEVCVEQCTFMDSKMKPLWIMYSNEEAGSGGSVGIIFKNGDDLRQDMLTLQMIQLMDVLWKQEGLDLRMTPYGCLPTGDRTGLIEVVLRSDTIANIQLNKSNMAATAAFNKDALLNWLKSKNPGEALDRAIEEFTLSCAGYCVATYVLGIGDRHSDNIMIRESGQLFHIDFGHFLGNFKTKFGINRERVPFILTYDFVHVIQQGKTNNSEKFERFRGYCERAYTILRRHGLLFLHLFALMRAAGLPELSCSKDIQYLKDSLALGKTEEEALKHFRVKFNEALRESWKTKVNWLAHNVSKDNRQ
# Chain of PI3K p110 beta/p85 alpha (P27986 whole entry): as the sequence (P27986 whole entry) above
# Chain of PI3K p110 beta/p85 alpha (P42338 whole entry): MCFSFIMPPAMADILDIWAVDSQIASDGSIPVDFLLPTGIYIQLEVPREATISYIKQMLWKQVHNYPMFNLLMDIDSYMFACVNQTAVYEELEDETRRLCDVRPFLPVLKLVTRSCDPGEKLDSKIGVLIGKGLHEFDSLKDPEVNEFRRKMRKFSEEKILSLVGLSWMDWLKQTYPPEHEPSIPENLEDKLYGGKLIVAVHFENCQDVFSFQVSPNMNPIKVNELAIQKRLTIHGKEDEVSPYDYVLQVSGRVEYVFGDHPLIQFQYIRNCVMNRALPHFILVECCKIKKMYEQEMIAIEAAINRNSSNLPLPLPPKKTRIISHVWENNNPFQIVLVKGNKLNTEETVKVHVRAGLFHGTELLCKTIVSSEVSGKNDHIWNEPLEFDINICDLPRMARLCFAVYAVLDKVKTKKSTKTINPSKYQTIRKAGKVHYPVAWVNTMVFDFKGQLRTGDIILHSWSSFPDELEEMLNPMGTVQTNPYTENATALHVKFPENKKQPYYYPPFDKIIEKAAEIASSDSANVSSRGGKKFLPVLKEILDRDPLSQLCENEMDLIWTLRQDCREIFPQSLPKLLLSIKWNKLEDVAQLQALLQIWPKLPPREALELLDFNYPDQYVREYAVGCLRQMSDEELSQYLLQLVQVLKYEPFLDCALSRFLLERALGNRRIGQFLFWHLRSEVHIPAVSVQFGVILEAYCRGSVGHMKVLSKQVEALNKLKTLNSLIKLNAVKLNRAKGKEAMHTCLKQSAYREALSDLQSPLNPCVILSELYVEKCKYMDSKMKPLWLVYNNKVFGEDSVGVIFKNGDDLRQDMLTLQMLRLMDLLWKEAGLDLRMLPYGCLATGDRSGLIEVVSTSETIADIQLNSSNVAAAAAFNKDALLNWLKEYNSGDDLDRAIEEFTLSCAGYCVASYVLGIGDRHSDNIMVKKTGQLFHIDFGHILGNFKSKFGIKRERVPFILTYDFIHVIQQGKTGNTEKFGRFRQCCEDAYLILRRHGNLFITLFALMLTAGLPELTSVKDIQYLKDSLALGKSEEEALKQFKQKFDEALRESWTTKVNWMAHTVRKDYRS
# Chain of Phosphatidylinositol 4,5-bisphosphate 3-kinase catalytic subunit gamma isoform (P48736 whole entry, canonical isoform): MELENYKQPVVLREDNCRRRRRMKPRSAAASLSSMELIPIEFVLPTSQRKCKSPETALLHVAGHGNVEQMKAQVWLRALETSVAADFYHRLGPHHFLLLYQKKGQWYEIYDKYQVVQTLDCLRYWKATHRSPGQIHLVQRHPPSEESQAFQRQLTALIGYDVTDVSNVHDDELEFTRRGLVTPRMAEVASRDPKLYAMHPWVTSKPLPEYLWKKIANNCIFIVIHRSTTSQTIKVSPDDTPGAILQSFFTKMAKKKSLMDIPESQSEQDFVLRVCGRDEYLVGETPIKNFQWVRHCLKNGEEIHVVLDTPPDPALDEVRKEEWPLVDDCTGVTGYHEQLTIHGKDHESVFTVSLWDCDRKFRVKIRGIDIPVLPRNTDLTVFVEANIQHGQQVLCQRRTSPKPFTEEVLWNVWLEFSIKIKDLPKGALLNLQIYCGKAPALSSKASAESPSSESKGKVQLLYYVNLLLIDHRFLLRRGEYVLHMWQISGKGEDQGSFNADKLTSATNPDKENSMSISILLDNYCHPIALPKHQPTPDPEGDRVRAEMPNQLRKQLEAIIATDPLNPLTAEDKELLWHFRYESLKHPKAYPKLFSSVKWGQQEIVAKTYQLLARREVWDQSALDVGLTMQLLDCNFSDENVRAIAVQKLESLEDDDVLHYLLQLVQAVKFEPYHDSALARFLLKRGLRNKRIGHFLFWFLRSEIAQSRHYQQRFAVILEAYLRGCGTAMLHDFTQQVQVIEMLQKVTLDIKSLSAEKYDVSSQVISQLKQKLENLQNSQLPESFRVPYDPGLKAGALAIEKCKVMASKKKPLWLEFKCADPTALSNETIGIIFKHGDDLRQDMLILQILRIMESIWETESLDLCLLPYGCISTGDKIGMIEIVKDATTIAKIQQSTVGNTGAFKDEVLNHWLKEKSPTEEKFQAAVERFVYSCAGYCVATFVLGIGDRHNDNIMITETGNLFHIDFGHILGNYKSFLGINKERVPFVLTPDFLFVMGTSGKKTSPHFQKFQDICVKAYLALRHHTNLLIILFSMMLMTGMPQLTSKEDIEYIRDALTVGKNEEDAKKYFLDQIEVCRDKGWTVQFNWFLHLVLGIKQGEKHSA
Compound,IC50 [1] [nM],Papp A→B at 1.5 h [2] [×10⁻⁶ cm/s],IC50 [3] [nM],Papp B→A at 1.5 h [4] [×10⁻⁶ cm/s],other results
CC[C@H](Nc1ncnc2[nH]cnc12)c1nc2cccc(F)c2c(=O)n1-c1ccccc1 [IDELALISIB],> 20000,,,,
COc1ncc(-c2cc(OCC3CCOCC3)c3ncnc(C)c3c2)cc1NS(=O)(=O)c1ccc(F)cc1F,8,31,0.92,33,
COc1ncc(-c2cc(OCCN(C)C)c3ncnc(C)c3c2)cc1NS(=O)(=O)c1ccc(F)cc1F,460,10,5.3,51,
COc1ncc(-c2cc(OC(C)C)c3ncnc(C)c3c2)cc1NS(=O)(=O)c1ccc(F)cc1F,13,32,2,22,
Cc1nc(NC(=O)N2CCC[C@H]2C(N)=O)sc1-c1ccnc(C(C)(C)C(F)(F)F)c1 [ALPELISIB],3500,,,,
COc1ncc(-c2cc(OC3CCOC(C)(C)C3)c3ncnc(C)c3c2)cc1NS(=O)(=O)c1ccc(F)cc1F (configuration not stated),2,31,0.89,22,
COc1ncc(-c2ccc3nccc(-c4ccnnc4)c3c2)cc1NS(=O)(=O)c1ccc(F)cc1F [OMIPALISIB],4,,,,
COc1ncc(-c2cc(OC3CCCCC3)c3ncnc(C)c3c2)cc1NS(=O)(=O)c1ccc(F)cc1F,33,16,1.5,21,
COc1ccc(-c2cc(OC3CCOCC3)c3ncnc(C)c3c2)cn1,17000,39,31,31,
COc1ncc(-c2cc(OC3CCCC3)c3ncnc(C)c3c2)cc1NS(=O)(=O)c1ccc(F)cc1F,15,28,1,17,
COc1ncc(-c2cc(OC)c3ncnc(C)c3c2)cc1NS(=O)(=O)c1ccc(F)cc1F,130,35,1.2,31,
C[C@H](NC(=O)c1c(N)nn2cccnc12)c1cc2cccc(C#Cc3cnn(C)c3)c2c(=O)n1-c1ccccc1 [EGANELISIB],980,,,,
COc1ncc(-c2cc(OCC3CCN(C)CC3)c3ncnc(C)c3c2)cc1NS(=O)(=O)c1ccc(F)cc1F,81,8.8,1.6,38,
COc1ncc(-c2cc(OC(F)F)c3ncnc(C)c3c2)cc1NS(=O)(=O)c1ccc(F)cc1F,130,34,1.7,17,
COc1ncc(-c2cc(OCCN3CCCC3)c3ncnc(C)c3c2)cc1NS(=O)(=O)c1ccc(F)cc1F,1300,7.5,6.8,38,
COc1ncc(-c2cc(OC3CCOCC3)c3nc(N)nc(C)c3c2)cc1NS(=O)(=O)c1ccc(F)cc1F,140,,,,
Cc1c(Cn2c(C)nc3c(C(=O)O)cc(N4CCOCC4)cc32)cccc1C(F)(F)F [GSK-2636771],> 20000,,,,
COc1ncc(-c2cc(OC3CCN(C)CC3)c3ncnc(C)c3c2)cc1NS(=O)(=O)c1ccc(F)cc1F,230,4.5,2.1,46,
COc1ncc(-c2cc(OC3CCC3)c3ncnc(C)c3c2)cc1NS(=O)(=O)c1ccc(F)cc1F,3,44,1,30,
Cc1ccc(=O)n(-c2ccccc2)c1,,,,,Activity (Mus musculus [5]): Active; Activity (Mus musculus [6]): Active; Activity (Mus musculus [7]): Active; Activity (Mus musculus [8]): Active; Activity (Mus musculus [9]): Active; Activity (Mus musculus [10]): Active; Activity (Mus musculus [11]): Active; Activity (Mus musculus [12]): Active; Activity (Mus musculus [13]): Active; Activity (Mus musculus [14]): Active
C[C@H](Nc1ncnc2nc[nH]c12)c1cc2cccc(Cl)c2c(=O)n1-c1ccccc1 [DUVELISIB],6900,,,,
COc1ncc(-c2cc(OC3CCOCC3)c3ncnc(C)c3c2)cc1NS(=O)(=O)c1ccc(F)cc1F,3,42,0.6,39,Therm_solubility [15]: Soluble; AUC(0-inf) [16]: 1820 ng·h/mL; inhibition (Mus musculus [17]): Dose-dependent effect; inhibition (Mus musculus [18]): Dose-dependent effect; half-life [19]: 5.57 h; clearance [20]: 4.58 mL/min/kg; Vd [21]: 0.368 L/kg; IC50 (PI3K p110 beta/p85 alpha): 0.54 nM; bioavailability [22]: 15.8%; IC50 [23]: 2.1 nM; half-life [24]: 0.92 h; Therm_solubility [25]: Soluble; AUC(0-inf) [26]: 3240 ng·h/mL; IC50 [27]: 0.52 nM; inhibition (Mus musculus [28]): Dose-dependent effect; Kinetic_solubility [29]: Soluble; inhibition (Mus musculus [30]): Dose-dependent effect; Cmax [31]: 1210 ng/mL
COc1ncc(-c2cc(O[C@@H]3CCOC3)c3ncnc(C)c3c2)cc1NS(=O)(=O)c1ccc(F)cc1F,10,38,0.88,37,AUC(0-inf) [16]: 520 ng·h/mL; inhibition (Mus musculus [17]): Dose-dependent effect; inhibition (Mus musculus [18]): Dose-dependent effect; half-life [19]: 4.08 h; clearance [20]: 16 mL/min/kg; Vd [21]: 0.5 L/kg; IC50 (PI3K p110 beta/p85 alpha): 0.34 nM; bioavailability [22]: 58.7%; IC50 [23]: 1.5 nM; half-life [24]: 0.36 h; AUC(0-inf) [26]: 3170 ng·h/mL; IC50 [27]: 0.35 nM; inhibition (Mus musculus [28]): Dose-dependent effect; inhibition (Mus musculus [30]): Dose-dependent effect; Cmax [31]: 1440 ng/mL
COc1ncc(-c2cc(OCCN3CCOCC3)c3ncnc(C)c3c2)cc1NS(=O)(=O)c1ccc(F)cc1F,210,13,2.3,33,
COc1ncc(-c2cc(OCC3CC3)c3ncnc(C)c3c2)cc1NS(=O)(=O)c1ccc(F)cc1F,20,30,1.5,23,
COc1ncc(-c2cc(OCC3CCOC3)c3ncnc(C)c3c2)cc1NS(=O)(=O)c1ccc(F)cc1F (configuration not stated),4,34,0.95,39,
